# Values quoted from earlier work as cited in article PMC5688156, “The natural product carolacton inhibits folate-dependent C1 metabolism by targeting FolD/MTHFD” (Nature Communications, 2017).
# System: human cells
# Parameters: method as in PMID 9765352, PMID 9533527, PMID 9067281
# Conditions: poor activity; cited from earlier work
smiles,measurement,value
Nc1nc2c(c(=O)[nH]1)N1C(=O)N(c3ccc(C(=O)N[C@@H](CCC(=O)O)C(=O)O)cc3)CC1CN2 (stereo partly shown) [LY345899],IC50,128 µM
